Data on 13 compounds can be found in BindingDB's records for doi:10.1016/j.chembiol.2014.12.015 (University of Florida College of Medicine, 2015).

Common to all, as to experiment: HDAC Activity Assays
Test [1] deals with Histone deacetylase 1/Nuclear receptor corepressor 2 [395-498] (Homo sapiens, UniProt Q13547). The protocol:
(§1) The enzyme activities were initially tested in a serial dilution of each HDAC using the HDAC-Glo I/II reagents (Promega) according to the manufacturer s protocol. Luminescence was detected using the BMG POLARstar Omega microplate reader. A concentration of each HDAC within the linear response region was used for assaying inhibition of HDAC activity by UF010 and analogs. Each compound was tested in 10-point dose-response assay in triplicate.

Test [2] has as its target Histone deacetylase 2/Nuclear receptor corepressor 2 [395-498] (Homo sapiens, UniProt Q92769). How it is done:
as §1

Test [3] addresses Histone deacetylase 3/Nuclear receptor corepressor 2 [395-498] (Homo sapiens, UniProt O15379). How it is done: as §1
Another test concerns the target T1, Histone deacetylase 6 (Homo sapiens, UniProt Q9UBN7).
T1 sequence (Q9UBN7 whole entry): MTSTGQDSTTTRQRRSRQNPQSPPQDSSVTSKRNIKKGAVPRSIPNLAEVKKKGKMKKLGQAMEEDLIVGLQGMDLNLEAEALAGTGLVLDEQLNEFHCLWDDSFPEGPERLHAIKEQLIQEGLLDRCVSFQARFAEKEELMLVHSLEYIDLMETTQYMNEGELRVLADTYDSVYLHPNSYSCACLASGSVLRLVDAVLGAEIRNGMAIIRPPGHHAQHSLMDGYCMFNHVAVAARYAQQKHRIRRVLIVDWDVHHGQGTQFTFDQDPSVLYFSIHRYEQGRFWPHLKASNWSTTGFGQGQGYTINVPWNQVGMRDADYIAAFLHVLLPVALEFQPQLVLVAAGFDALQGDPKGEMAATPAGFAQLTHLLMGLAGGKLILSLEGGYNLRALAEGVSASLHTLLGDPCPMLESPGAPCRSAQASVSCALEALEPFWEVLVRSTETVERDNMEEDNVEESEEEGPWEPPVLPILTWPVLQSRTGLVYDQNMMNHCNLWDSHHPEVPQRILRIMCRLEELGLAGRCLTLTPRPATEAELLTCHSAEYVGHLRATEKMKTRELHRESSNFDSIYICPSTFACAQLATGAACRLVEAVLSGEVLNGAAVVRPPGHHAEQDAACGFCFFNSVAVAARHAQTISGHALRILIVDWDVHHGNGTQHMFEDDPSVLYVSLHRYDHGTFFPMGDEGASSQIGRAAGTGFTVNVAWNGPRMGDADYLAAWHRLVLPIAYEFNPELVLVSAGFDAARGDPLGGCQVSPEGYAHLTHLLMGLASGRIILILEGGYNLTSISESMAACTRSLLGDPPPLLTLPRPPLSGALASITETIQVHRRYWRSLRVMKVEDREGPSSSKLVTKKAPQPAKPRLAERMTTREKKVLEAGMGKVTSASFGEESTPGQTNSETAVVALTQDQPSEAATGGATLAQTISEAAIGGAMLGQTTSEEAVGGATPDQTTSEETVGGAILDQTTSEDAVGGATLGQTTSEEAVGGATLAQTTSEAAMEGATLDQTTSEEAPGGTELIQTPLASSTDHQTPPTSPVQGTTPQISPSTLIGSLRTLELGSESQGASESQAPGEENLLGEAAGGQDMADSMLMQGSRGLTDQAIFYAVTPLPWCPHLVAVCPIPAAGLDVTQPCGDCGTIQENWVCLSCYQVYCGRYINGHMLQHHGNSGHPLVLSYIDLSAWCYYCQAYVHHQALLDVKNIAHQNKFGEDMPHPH
How it is done: as §1

The target in another test is T2, Histone deacetylase 8 (Homo sapiens, UniProt Q9BY41).
T2 sequence (Q9BY41 whole entry): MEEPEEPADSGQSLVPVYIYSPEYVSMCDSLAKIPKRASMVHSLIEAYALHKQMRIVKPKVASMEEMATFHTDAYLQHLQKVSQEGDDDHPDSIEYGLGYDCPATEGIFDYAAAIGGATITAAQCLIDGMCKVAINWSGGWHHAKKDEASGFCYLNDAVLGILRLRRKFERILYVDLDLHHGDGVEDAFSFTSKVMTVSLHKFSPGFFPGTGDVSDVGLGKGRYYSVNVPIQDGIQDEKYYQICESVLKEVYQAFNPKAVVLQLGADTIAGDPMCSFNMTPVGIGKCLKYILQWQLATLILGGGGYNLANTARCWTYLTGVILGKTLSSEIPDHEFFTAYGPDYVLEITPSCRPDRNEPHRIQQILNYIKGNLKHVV
How it is done:
as §1

Chain of Histone deacetylase 2/Nuclear receptor corepressor 2 [395-498] (Q92769 whole entry): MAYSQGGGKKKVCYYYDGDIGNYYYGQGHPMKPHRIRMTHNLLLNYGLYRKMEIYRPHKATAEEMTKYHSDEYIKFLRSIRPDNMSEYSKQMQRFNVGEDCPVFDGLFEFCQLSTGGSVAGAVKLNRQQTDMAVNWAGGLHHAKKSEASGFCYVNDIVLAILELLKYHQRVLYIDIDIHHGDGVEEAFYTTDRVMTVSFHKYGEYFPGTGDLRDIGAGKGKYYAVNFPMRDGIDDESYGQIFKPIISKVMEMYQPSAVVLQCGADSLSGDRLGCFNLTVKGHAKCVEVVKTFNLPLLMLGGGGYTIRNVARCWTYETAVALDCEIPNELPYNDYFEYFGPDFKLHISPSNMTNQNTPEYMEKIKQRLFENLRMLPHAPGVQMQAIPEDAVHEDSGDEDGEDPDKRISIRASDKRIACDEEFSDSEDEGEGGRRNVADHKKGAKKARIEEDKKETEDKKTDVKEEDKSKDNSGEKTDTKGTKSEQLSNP
Chain of Histone deacetylase 2/Nuclear receptor corepressor 2 [395-498] (Q9Y618 395-498, further chain): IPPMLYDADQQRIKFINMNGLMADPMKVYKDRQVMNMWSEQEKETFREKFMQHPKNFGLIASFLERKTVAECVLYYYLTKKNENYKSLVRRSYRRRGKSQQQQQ
Chain of Histone deacetylase 1/Nuclear receptor corepressor 2 [395-498] (Q13547 whole entry): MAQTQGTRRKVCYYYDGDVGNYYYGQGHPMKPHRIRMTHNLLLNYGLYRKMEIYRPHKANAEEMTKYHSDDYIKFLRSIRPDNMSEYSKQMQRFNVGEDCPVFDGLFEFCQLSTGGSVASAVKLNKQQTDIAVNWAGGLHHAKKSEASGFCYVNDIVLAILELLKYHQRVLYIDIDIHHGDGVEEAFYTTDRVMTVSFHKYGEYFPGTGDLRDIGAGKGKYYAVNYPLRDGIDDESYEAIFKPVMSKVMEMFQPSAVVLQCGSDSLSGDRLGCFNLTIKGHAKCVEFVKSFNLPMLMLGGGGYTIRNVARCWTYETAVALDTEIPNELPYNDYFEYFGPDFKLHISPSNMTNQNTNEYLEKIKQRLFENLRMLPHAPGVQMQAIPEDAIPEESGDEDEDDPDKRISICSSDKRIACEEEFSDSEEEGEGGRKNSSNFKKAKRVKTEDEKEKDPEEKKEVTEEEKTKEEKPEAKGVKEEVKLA
Chain of Histone deacetylase 1/Nuclear receptor corepressor 2 [395-498] (Q9Y618 395-498, further chain): as the sequence (Q9Y618 395-498, further chain) above
Chain of Histone deacetylase 3/Nuclear receptor corepressor 2 [395-498] (O15379 whole entry): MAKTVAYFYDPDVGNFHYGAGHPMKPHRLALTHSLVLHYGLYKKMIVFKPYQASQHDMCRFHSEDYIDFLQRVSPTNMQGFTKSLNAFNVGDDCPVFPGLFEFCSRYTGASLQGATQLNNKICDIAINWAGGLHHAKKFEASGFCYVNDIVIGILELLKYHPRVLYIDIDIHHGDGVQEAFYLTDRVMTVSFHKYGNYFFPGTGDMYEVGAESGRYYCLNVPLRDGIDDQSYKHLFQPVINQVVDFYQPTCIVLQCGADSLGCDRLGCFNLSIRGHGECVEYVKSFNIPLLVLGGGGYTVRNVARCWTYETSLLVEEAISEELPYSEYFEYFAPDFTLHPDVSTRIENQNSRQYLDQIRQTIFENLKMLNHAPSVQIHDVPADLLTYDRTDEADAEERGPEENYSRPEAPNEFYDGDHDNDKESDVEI
Chain of Histone deacetylase 3/Nuclear receptor corepressor 2 [395-498] (Q9Y618 395-498, further chain): as the sequence (Q9Y618 395-498, further chain) above

`CCCCNNC(=O)c1ccc(F)cc1` [SR-3203]: the IC50 is 13.2 µM in test [1], 15.1 µM in test [2] and 1.78 µM in test [3].
Consider `CCCCNNC(=O)c1ccc(OC(F)(F)F)cc1` [SR-3204], for which the IC50 was 8.86 µM in test [1], 9.09 µM in test [2] and 1.35 µM in test [3].
For `CCCCNNC(=O)c1ccc(OC)cc1` [SR-3206] the same measures were 1.91 µM, 2.52 µM and 0.43 µM.
Consider `CCCCNNC(=O)c1ccc(N(C)C)cc1` [SR-3208], for which the IC50 came out at 0.23 µM in test [1]; 0.88 µM in test [2]; 0.12 µM in test [3]; 9.57 µM against Histone deacetylase 6; 0.72 µM at Histone deacetylase 8.
With `CCCCNNC(=O)c1ccc(Cl)cc1` [SR-3210], the IC50 in test [1] stood at 3 µM; in test [2], 3.8 µM; in test [3], 2.5 µM.
Consider `O=C(NNCCC1CCCC1)c1ccc(Br)cc1` [SR-3297], for which the values for the IC50 in test [1], in test [2] and in test [3] were 7.4 µM, 7.65 µM and 1.08 µM, respectively.
`CN(C)c1ccc(C(=O)NNCC2CCCC2)cc1` [SR-3298]: the values for the IC50 in test [1], in test [2] and in test [3] were 1.76 µM, 3.25 µM and 1.67 µM, respectively.
As for `CCCCNNC(=O)c1ccc(C(C)(C)C)cc1` [SR-3302], the IC50 in test [1] was 0.19 µM; in test [2] it was 1.04 µM; in test [3], 0.07 µM; against Histone deacetylase 6, 6.83 µM; at Histone deacetylase 8, 0.49 µM.
Turning to `O=C(NNCC1CCCC1)c1ccc(Br)cc1` [SR-3364], the IC50 in test [1] was found to be 8.81 µM; in test [2], 28.4 µM; in test [3], 6.98 µM.
As for `O=C(NNCCCC1CCCC1)c1ccc(Br)cc1` [SR-3365], the IC50 in test [1], in test [2] and in test [3] was more than 50 µM in each case.
Consider `CCCCCCNNC(=O)c1ccc(Br)cc1` [SR-3367], for which the IC50 in test [1] came to 10.3 µM; in test [2], 16.1 µM; in test [3] it was 20 µM; at Histone deacetylase 6, 39.1 µM.
As to `CCCCCNNC(=O)c1ccc(Br)cc1` [SR-3970], the IC50 in test [1] stood at 1.87 µM; in test [2] it was 1.92 µM; in test [3], 0.92 µM; against Histone deacetylase 6 it was 5.73 µM; on Histone deacetylase 8 it was 4.87 µM.
Regarding `CCCCNNC(=O)c1ccc(Br)cc1` [UF010], the IC50 at Histone deacetylase 6 was found to be 9.09 µM; against Histone deacetylase 8, 2.83 µM.

As a reminder, the IC50 is the concentration at which inhibition is half-maximal. Read a low IC50 as greater potency in that assay.
